Data taken from patent publication US5977133A, “Pyridone antibiotic with improved safety profile” (priority 1998, dated 1999).
Converted amounts (≈) assume the structure as drawn.

Legend:
Type in all cases: cell-based
[1] = system: M. avium; test: In vitro MIC, agar dilution; details: Mycobacterium avium
[2] = system: H. pylori; test: In vitro MIC, agar dilution; details: Helicobacter pylori
[3] = system: C. difficile; test: In vitro MIC, agar dilution; details: Clostridioides difficile
[4] = system: B. fragilis; test: In vitro MIC, agar dilution; details: Bacteroides fragilis
[5] = system: C. perfringens; test: microbe, parasite or virus in culture; details: Clostridium perfringens
[6] = system: S. pneumoniae (CiproR); test: In vitro MIC, agar dilution; details: Streptococcus pneumoniae, read-out: MIC Range
[7] = system: Enterococcus spp. (VanR); test: In vitro MIC, agar dilution; details: Enterococcus spp. (VanR), 21 isolates
[8] = system: C. freundii; test: In vitro MIC, agar dilution; details: Citrobacter freundii
[9] = system: Legionella spp.; test: microbe, parasite or virus in culture; details: Legionella
[10] = system: S. aureus (CiproR); test: In vitro MIC, agar dilution; details: Staphylococcus aureus
[11] = system: S. epidermidis (CiproS); test: In vitro MIC, agar dilution; details: Staphylococcus epidermidis
[12] = system: E. faecalis (VanS); test: In vitro MIC, agar dilution; details: Enterococcus faecalis
[13] = system: S. pyogenes; test: In vitro MIC, agar dilution; details: Streptococcus pyogenes
[14] = system: Klebsiella spp.; test: In vitro MIC, agar dilution
[15] = system: Providencia spp.; test: In vitro MIC, agar dilution; details: Providencia spp., 28 isolates
[16] = system: E. faecium (CiproR); test: In vitro MIC, agar dilution; details: Enterococcus faecium; E. faecium (CiproR), 2 isolates; read-out: MIC Range
[17] = system: N. gonorrhoeae; test: In vitro MIC, agar dilution; details: Neisseria gonorrhoeae
[18] = system: S. aureus (CiproS); test: In vitro MIC, agar dilution; details: Staphylococcus aureus
[19] = system: Salmonella spp.; test: In vitro MIC, agar dilution; details: 23 isolates
In short: (§1)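 MIC, the lowest compound level without growth versus a drug-free BHI control plate, with faint haze or scattered colonies scored as no growth. About 10^4 CFU was replicator-spotted from 1:100 dilutions, or 1:10 for slow-growing strains, and plates were read after ~20–24 h at 35–37 °C.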

[20] = system: E. coli; test: In vitro MIC, agar dilution; details: Escherichia coli, 25 isolates
In short: as §1

[21] = system: P. mirabilis; test: In vitro MIC, agar dilution; details: Proteus mirabilis
[22] = system: E. faecium (VanS); test: In vitro MIC, agar dilution; details: Enterococcus faecium, E. faecium (VanS), 11 isolates
[23] = system: E. faecium (CiproS); test: In vitro MIC, agar dilution; details: Enterococcus faecium, E. faecium (CiproS), 16 isolates
[24] = system: Enterobacter spp.; test: In vitro MIC, agar dilution
[25] = system: M. catarrhalis; test: In vitro MIC, agar dilution; details: Moraxella catarrhalis
[26] = system: M. pneumoniae; test: In vitro MIC, agar dilution; details: Mycoplasmoides pneumoniae, read-out: MIC Range
[27] = system: S. epidermidis (CiproR); test: In vitro MIC, agar dilution; details: Staphylococcus epidermidis, S. epidermidis (CiproR), 11 isolates
[28] = system: S. pneumoniae (PenR); test: In vitro MIC, agar dilution; details: Streptococcus pneumoniae
[29] = system: H. influenzae; test: In vitro MIC, agar dilution; details: Haemophilus influenzae
[30] = system: Shigella spp.; test: microbe, parasite or virus in culture; details: read-out: MIC Range

## C[C@@H]1CN(c2c(F)c(N)c3c(=O)c(C(=O)O)cn(C4CC4)c3c2F)C[C@H](C)N1 [Sparfloxacin, sparfloxacin]
[1]; read-out: MIC Range
  MIC: 0.5 to 16 µg/mL (≈ 1.27 to 40.8 µM)
[1]; M. avium, 20 isolates, read-out: MIC50
  MIC50: 2 µg/mL (≈ 5.1 µM)
[1]; M. avium, 20 isolates, read-out: MIC90
  MIC90: 2 µg/mL (≈ 5.1 µM)
[2]
  MIC90: 0.25 µg/mL (≈ 0.637 µM)
[2]; read-out: MIC Range
  MIC: 0.06 to 0.25 µg/mL (≈ 0.153 to 0.637 µM)
[2]; H. pylori, 17 isolates, read-out: MIC50
  MIC50: 0.12 µg/mL (≈ 0.306 µM)
[3]; read-out: MIC Range
  MIC: 2 to 4 µg/mL (≈ 5.1 to 10.2 µM)
[3]; C. difficile, 10 isolates, read-out: MIC50
  MIC50: 4 µg/mL (≈ 10.2 µM)
[3]; C. difficile, 10 isolates, read-out: MIC90
  MIC90: 4 µg/mL (≈ 10.2 µM)
[4]; read-out: MIC Range
  MIC: 0.5 to 2 µg/mL (≈ 1.27 to 5.1 µM)
[4]; B. fragilis, 18 isolates, read-out: MIC50
  MIC50: 1 µg/mL (≈ 2.55 µM)
[4]; B. fragilis, 18 isolates, read-out: MIC90
  MIC90: 2 µg/mL (≈ 5.1 µM)
[5]
  MIC50: 0.25 µg/mL (≈ 0.637 µM)
[5]; C. perfringens, 13 isolates
  MIC90: 0.5 µg/mL (≈ 1.27 µM)
[5]; read-out: MIC Range
  MIC: 0.06 to 0.5 µg/mL (≈ 0.153 to 1.27 µM)
[6]
  MIC: 0.25 to 0.5 µg/mL (≈ 0.637 to 1.27 µM)
[7]; read-out: MIC50
  MIC50: 0.5 µg/mL (≈ 1.27 µM)
[7]; read-out: MIC90
  MIC90: 8 µg/mL (≈ 20.4 µM)
[7]; read-out: MIC Range
  MIC: 0.25 to 32 µg/mL (≈ 0.637 to 81.5 µM)
[8]
  MIC50: 0.03 µg/mL (≈ 0.0765 µM)
  MIC90: 0.5 µg/mL (≈ 1.27 µM)
[8]; C. freundii, 20 isolates, read-out: MIC Range
  MIC: 0.015 to 1 µg/mL (≈ 0.0382 to 2.55 µM)
[9]
  MIC50: 0.06 µg/mL (≈ 0.153 µM)
  MIC90: 0.25 µg/mL (≈ 0.637 µM)
[9]; read-out: MIC Range
  MIC: 0.03 to 0.25 µg/mL (≈ 0.0765 to 0.637 µM)
[10]; read-out: MIC Range
  MIC: 0.12 to 16 µg/mL (≈ 0.306 to 40.8 µM)
[10]; S. aureus (CiproR), 25 isolates, read-out: MIC50
  MIC50: 4 µg/mL (≈ 10.2 µM)
[10]; S. aureus (CiproR), 25 isolates, read-out: MIC90
  MIC90: 8 µg/mL (≈ 20.4 µM)
[11]
  MIC90: 0.12 µg/mL (≈ 0.306 µM)
[11]; S. epidermidis (CiproS), 23 isolates, read-out: MIC50
  MIC50: 0.06 µg/mL (≈ 0.153 µM)
[11]; S. epidermidis (CiproS), 23 isolates, read-out: MIC Range
  MIC: 0.03 to 0.12 µg/mL (≈ 0.0765 to 0.306 µM)
[12]
  MIC90: 0.5 µg/mL (≈ 1.27 µM)
[12]; read-out: MIC Range
  MIC: 0.25 to 1 µg/mL (≈ 0.637 to 2.55 µM)
[12]; E. faecalis (VanS), 17 isolates, read-out: MIC50
  MIC50: 0.5 µg/mL (≈ 1.27 µM)
[13]
  MIC90: 0.5 µg/mL (≈ 1.27 µM)
[13]; read-out: MIC Range
  MIC: 0.12 to 1 µg/mL (≈ 0.306 to 2.55 µM)
[13]; S. pyogenes, 21 isolates, read-out: MIC50
  MIC50: 0.25 µg/mL (≈ 0.637 µM)
[14]; Klebsiella
  MIC90: 0.06 µg/mL (≈ 0.153 µM)
[14]; Klebsiella spp., 29 isolates, read-out: MIC50
  MIC50: 0.06 µg/mL (≈ 0.153 µM)
[14]; Klebsiella spp., 29 isolates, read-out: MIC Range
  MIC: 0.004 to 0.5 µg/mL (≈ 0.0102 to 1.27 µM)
[15]; read-out: MIC50
  MIC50: 0.12 µg/mL (≈ 0.306 µM)
[15]; read-out: MIC90
  MIC90: 1 µg/mL (≈ 2.55 µM)
[15]; read-out: MIC Range
  MIC: 0.015 to 2 µg/mL (≈ 0.0382 to 5.1 µM)
[16]
  MIC: 8 to 32 µg/mL (≈ 20.4 to 81.5 µM)
[17]
  MIC90: 0.015 µg/mL (≈ 0.0382 µM)
[17]; N. gonorrhoeae, 12 isolates, read-out: MIC50
  MIC50: 0.004 µg/mL (≈ 0.0102 µM)
[17]; N. gonorrhoeae, 12 isolates, read-out: MIC Range
  MIC: 0.002 to 0.06 µg/mL (≈ 0.0051 to 0.153 µM)
[18]
  MIC50: 0.03 µg/mL (≈ 0.0765 µM)
  MIC90: 0.06 µg/mL (≈ 0.153 µM)
[18]; S. aureus (CiproS), 21 isolates, read-out: MIC Range
  MIC: 0.03 to 0.06 µg/mL (≈ 0.0765 to 0.153 µM)
[19]
  MIC: 0.004 to 0.5 µg/mL (≈ 0.0102 to 1.27 µM)
[19]; read-out: MIC50
  MIC50: 0.03 µg/mL (≈ 0.0765 µM)
[19]; read-out: MIC90
  MIC90: 0.06 µg/mL (≈ 0.153 µM)
[20]
  MIC: 0.004 to 0.03 µg/mL (≈ 0.0102 to 0.0765 µM)
[20]; read-out: MIC50
  MIC50: 0.015 µg/mL (≈ 0.0382 µM)
[20]; read-out: MIC90
  MIC90: 0.03 µg/mL (≈ 0.0765 µM)
[21]
  MIC90: 0.25 µg/mL (≈ 0.637 µM)
[21]; read-out: MIC Range
  MIC: 0.12 to 0.5 µg/mL (≈ 0.306 to 1.27 µM)
[21]; P. mirabilis, 20 isolates, read-out: MIC50
  MIC50: 0.25 µg/mL (≈ 0.637 µM)
[22]; read-out: MIC50
  MIC50: 1 µg/mL (≈ 2.55 µM)
[22]; read-out: MIC90
  MIC90: 2 µg/mL (≈ 5.1 µM)
[22]; read-out: MIC Range
  MIC: 1 to 4 µg/mL (≈ 2.55 to 10.2 µM)
[23]; read-out: MIC50
  MIC50: 0.5 µg/mL (≈ 1.27 µM)
[23]; read-out: MIC90
  MIC90: 1 µg/mL (≈ 2.55 µM)
[23]; read-out: MIC Range
  MIC: 0.5 to 32 µg/mL (≈ 1.27 to 81.5 µM)
[24]; Enterobacter
  MIC90: 0.06 µg/mL (≈ 0.153 µM)
[24]; Enterobacter spp., 35 isolates, read-out: MIC50
  MIC50: 0.06 µg/mL (≈ 0.153 µM)
[24]; Enterobacter spp., 35 isolates, read-out: MIC Range
  MIC: 0.008 to 0.25 µg/mL (≈ 0.0204 to 0.637 µM)
[25]
  MIC50: 0.03 µg/mL (≈ 0.0765 µM)
  MIC90: 0.06 µg/mL (≈ 0.153 µM)
[25]; M. catarrhalis, 18 isolates, read-out: MIC Range
  MIC: 0.015 to 0.25 µg/mL (≈ 0.0382 to 0.637 µM)
[26]
  MIC: 0.06 to 0.12 µg/mL (≈ 0.153 to 0.306 µM)
[27]; read-out: MIC50
  MIC50: 4 µg/mL (≈ 10.2 µM)
[27]; read-out: MIC90
  MIC90: 8 µg/mL (≈ 20.4 µM)
[28]
  MIC90: 0.25 µg/mL (≈ 0.637 µM)
[28]; read-out: MIC Range
  MIC: 0.12 to 0.25 µg/mL (≈ 0.306 to 0.637 µM)
[28]; S. pneumoniae (PenR), 25 isolates, read-out: MIC50
  MIC50: 0.25 µg/mL (≈ 0.637 µM)
[29]
  MIC90: 0.015 µg/mL (≈ 0.0382 µM)
[29]; H. influenzae, 18 isolates, read-out: MIC50
  MIC50: 0.008 µg/mL (≈ 0.0204 µM)
[29]; H. influenzae, 18 isolates, read-out: MIC Range
  MIC: 0.004 to 0.03 µg/mL (≈ 0.0102 to 0.0765 µM)
[30]
  MIC: 0.004 to 0.015 µg/mL (≈ 0.0102 to 0.0382 µM)
